Reference: patent US20210379214A1, “Phospholipid-Free Small Unilamellar Vesicles (PFSUVS) for Drug Delivery” (The University of British Columbia, priority 2018, published 2021)
Converted amounts (≈) assume the structure as drawn.

What was measured:
EMT6 cells [1] = test: Cellular uptake of DOX by confocal laser scanning microscopy; type: cell-based, murine; conditions: for Mean Fluorescence Intensity: 5 μg DOX/ml
Procedure: (§1) EMT6 (murine breast tumor) and the resistant variant, EMT6/AR1 cells overexpressing P-glycoprotein were purchased from the National Cancer Institute (Bethesda, Md.). EMT6 cells were cultured in DMEM medium with 10% FBS, penicillin (100 U/ml) and streptomycin (100 μg/ml) at 37° C. with 5% CO2.
Cellular uptake of DOX was imaged by confocal laser scanning microscopy (CLSM). EMT6 cells were seeded on a cover slip placed in a 24-well plate (1×10^5 cell/well) for 24 h prior to the study. […] The medium was removed and the cells were washed with PBS twice before fixation with 10% of formaldehyde at room temperature for 20 min. The cover slip was then washed for another 2 times with PBS and mount on a glass slide with fluorescence shield containing DAPI. The cells were imaged under a Zeiss™ confocal microscope (LSM 700™) and the image was analyzed using the CellProfiler™ (Version 3.0) software.

[2] = test system: EMT6 murine breast cancer cells; test: In vitro cytotoxicity (MTT assay); type: cell-based
Procedure: as §1
EMT6 cells were seeded on a 96-well plate (1000 cells/well). Wells with medium only were used as blank. […] Two days later, 5 μl of MTT solution (5 mg/ml) was added to each well, followed by 4-h incubation. The medium was removed and 100 μl DMSO was added into each well, followed by incubation at room temperature for 15 min. Absorbance at 540 nm in each well was then measured by a plate reader. The cell viability was calculated as (Abs−Abblank)/(Ab100−Abblank)×100%, where Abs is the Absorbance540 nm for the experimental group, Abblank is the Absorbance540 nm of sample without cells and Ab100 is the Absorbance540 nm of sample without treatment.

EMT6 cells [3] = test: Cellular uptake in the presence of apolipoprotein; type: cell-based, murine; conditions: 4 hours, apolipoprotein 5, 20, 100 μg/ml
Procedure: EMT6 cells were seeded in 12 wells on cover slip over night to be confluent. […] After treatment, the cover slips were fixed with 10% and were then mounted on slide with a DAPI contained fluorescence shield. The slides were imaged under a confocal microscopy. Doxorubicin signal in those images were then quantified by Cellprofiler™.

## COc1cccc2c1C(=O)c1c(O)c3c(c(O)c1C2=O)C[C@@](O)(C(=O)CO)C[C@@H]3O[C@H]1C[C@H](N)[C@H](O)[C@H](C)O1 [DOX, doxorubicin]
EMT6 cells [1]; EMT6 cells, 4 hr
  change of DOX cellular uptake in the presence of serum versus serum free: did not significantly change
EMT6 cells [1]; EMT6 cells, 4 hr, 10% Serum
  Mean Fluorescence Intensity: 0.247 ± 0.021
EMT6 cells [1]; EMT6 cells, 4 hr, Without Serum
  Mean Fluorescence Intensity: 0.258 ± 0.014
EMT6 cells [1]; absence of serum
  increased cellular uptake relative to PFSUVs-DOX and PLD: ~15 fold
[2]
  in vitro potency, fold more effective than PFSUVs-dox: 4 fold
[2]; MTT, curve fitting
  IC50: 0.025 µg/mL (≈ 0.046 µM)
EMT6 cells [3]
  effect of increasing concentrations of apolipoproteins on internalization: no influence
